Several values for one entry are separate records, joined by “and”; a condition that tells them apart may be missing. Identical values can stand only once.
Test system: DNBS induced distal colitis in Wistar rats
Experiment: DNBS (2,4 dinitrobenzenesulfonic acid) induced distal colitis in Wistar rats as a model for inflammatory bowel disease
Assay type: in vivo, Wistar derived female rats
Conditions: for I: Table 3; for I / Colon weight per 100 g B.W.: ribavirin 100 mg/kg × 7 or sulfasalazine 300 mg/kg × 7 p.o.; for Colon weight per 100 g B.W.: sacrifice 24 hours after final dosing
Method: Wistar derived female rats were provided by MDS Pharma Services Taiwan Ltd. and housed in APEC^R cages. All animals were maintained in a controlled temperature (22° C.-24° C.) and humidity (60-80%) environment with 12 hours light dark cycles for at least one week in the laboratory prior to use. Free access to standard lab chow (LabDiet, Rodent Diet, PMI Nutrition International, USA) and tap water was granted. All aspects of the work including housing, experimentation and disposal of animals were performed in general accordance with the International Guiding Principles for Biomedical Research Involving Animals (CIOMSI Publication No. ISBN 9290360194, 1985).
[…] (TCI, Japan), absolute ethanol (Merck, Germany), sodium chloride (Wako, Japan), sulfasalazine (Sigma, USA) and Tween 80 (Wako, Japan).
Groups of 3 Wistar derived female rats weighing 180±20 grams and fasted for 24 hours were used. Distal colitis was induced by intra-colonic instillation of 2,4-ninitrobenzene sulfonic acid (DNBS; 30 mg in 0.5 mL ethanol 30%), which was followed by injection of air (2 mL) through a cannula to ensure that the solution remained in the colon. […] Two control groups were similarly treated with vehicle alone while challenged with either DNBS (vehicle-control) or 0.9% NaCl solution (blank-control). The animals were sacrificed 24 hours after the final dosing of test compound and each colon was removed and weighed. During the experiment, the presence of diarrhea was recorded daily. Furthermore, when the abdominal cavity was opened, adhesions between the colon and other organs were first noted; presence of colonic ulceration was evaluated after removal and weighing of each colon. The colon-to-body weight (BW) ratio was then calculated for each animal according to the formula: Colon [(g)/BW(g)]×100%. The “Net” increase in the ratio of vehicle-control+DNBS group relative to vehicle-control group was used as a base for comparison with test substance treated groups and expressed as percent decrease. A 30% or more (≧30%) reduction in colon-to-body weight ratio, relative to the vehicle-treated control group, is considered significant.

SMILES	I (group Avg of 3 rats)	I (individual animals (N 1-3))	Colon weight per 100 g B.W. (individual animals (N 1-3))	effectiveness in this IBD model (ribavirin 100 mg/kg p.o., 24 and 2 hours before DNBS and then daily for 5 days)	Colon weight per 100 g B.W. (group Avg of 3 rats)
NC(=O)c1ncn([C@@H]2O[C@H](CO)[C@@H](O)[C@H]2O)n1 [Ribavirin, 1-β-D-ribofuranosyl-1H-1,2,4-triazole-3-carboxamide]	0.733	0.780 and 0.619 and 0.800	0.96 and 1.24	effective	
O=C(O)c1cc(/N=N/c2ccc(S(=O)(=O)Nc3ccccn3)cc2)ccc1O [Sulfasalazine, sulfasalazine]	0.625	0.631 and 0.548 and 0.697	1.01 and 0.85 and 1.08		0.98

Source: patent US6930093B2, “Use of ribofuranose derivatives against inflammatory bowel diseases” (Valeant Research & Development, priority 2003, dated 2005)
